In general, pIC50 refers to the negative decadic logarithm of the IC50, by convention in mol/L. The low end stands for a high IC50, the high end for a low IC50.

Consider 7 compounds from ChEMBL document CHEMBL1221369, “Cytotoxic isomalabaricane derivatives and a monocyclic triterpene glycoside from the sponge Rhabdastrella globostellata” (J Nat Prod, 2010).

Assay [1] has as its system HL-60 (human). In words: Cytotoxicity against human HL-60 cells by MTT assay.
Assay [2] concerns HL-60 (human). The assay is described as follows: Cytotoxicity against human HL-60 cells at 100 uM by MTT assay.
Assay [3] has as its system HL-60 (human). In words: Induction of apoptosis in human HL-60 cells assessed as pro-caspase 3 cleavage at 10 uM by immunoblot analysis.
Assay [4] deals with HL-60 (human). The assay is described as follows: Effect on Bcl-2 expression in human HL-60 cells at 10 uM by immunoblot analysis. (In western blotting, separated proteins are transferred to a membrane and probed.)
Assay [5] concerns HL-60 (human). The assay is described as follows: Induction of apoptosis in human HL-60 cells at 10 uM after 72 hrs by FITC-conjugated annexin V staining-based FACS analysis. (In flow cytometry, cells or beads pass a laser one at a time.)

SMILES strings stand for the structures. pIC50: −log10 of the molar value. The source made the active and inactive calls. The rule behind the calls is not given here.

Compound `CC(=O)O[C@H]1CC[C@@]2(C)[C@@H](CC[C@]3(C)/C(=C(C)/C=C/[C@H]4[C@H](C(C)(C)O)C[C@@H](O)[C@]4(C)O)C(=O)C[C@@H]23)C1(C)C` [RHABDASTIN G] had a pIC50 with HL-60 (human) [1] of 4.36.

On to `COC(=O)/C(C)=C1\C(=O)C[C@H]2[C@@]3(C)CC[C@H](OC(C)=O)C(C)(C)[C@@H]3CC[C@]12C`, for which the result in the assay with HL-60 (human) [2] was inactive.

With `C=C(C)[C@@H]1C[C@@H](O)[C@](C)(O)[C@H]1/C=C/C(C)=C1\C(=O)C[C@H]2[C@@]3(C)CC[C@H](OC(C)=O)C(C)(C)[C@@H]3CC[C@]12C` [RHABDASTIN E], the outcome in the assay on HL-60 (human) [3] was Active. The outcome in the assay with HL-60 (human) [4] was inactive. This compound had an Activity with HL-60 (human) [5] of 17%. For the same compound, in the assay with HL-60 (human) [1], the pIC50 was 4.54.

Take `COC(=O)/C(C)=C1\C(=O)C[C@H]2[C@@]3(C)CC[C@H](OC(C)=O)[C@](C)(C(=O)OC)[C@@H]3CC[C@]12C`: the result in the assay with HL-60 (human) [2] was inactive.

As to `C=C(C)[C@@H]1C[C@H](O)[C@](C)(O)[C@H]1/C=C/C(C)=C1\C(=O)C[C@H]2[C@@]3(C)CC[C@H](OC(C)=O)C(C)(C)[C@@H]3CC[C@]12C` [RHABDASTIN D], the result in the assay with HL-60 (human) [3] was Active. Besides, in the assay with HL-60 (human) [4], the outcome was inactive. In the assay on HL-60 (human) [5], this compound registered an Activity of 18%. The compound further gave a pIC50 in the assay on HL-60 (human) [1] of 4.68.

In the assay with HL-60 (human) [1], `C=C(C)[C@@H]1C[C@@H](OC(C)=O)[C@](C)(OC(C)=O)[C@H]1/C=C/C(C)=C1\C(=O)C[C@H]2[C@@]3(C)CC[C@H](OC(C)=O)C(C)(C)[C@@H]3CC[C@]12C` [RHABDASTIN D DIACETATE] had a pIC50 of 4.96.

Take `COC(=O)/C(C)=C1\C(=O)C[C@H]2[C@@]3(C)CC[C@H](O)C(C)(C)[C@@H]3CC[C@]12C`: the result in the assay with HL-60 (human) [2] was inactive.
